Results taken from ChEMBL document CHEMBL1275444, “Fitness trade-offs in blaTEM evolution” (2008).
In brackets after ≈: the same amount, converted by molar mass.

What was measured:
[1] = test system: Escherichia coli; test: Antibacterial activity against Escherichia coli TP1 harboring pBR322 carrying TEM-12 assessed as inhibition of bacterial growth at 256 ug/ml after 18 hrs; format: functional; settings: TP1, 18 h
[2] = test system: Escherichia coli; test: Antibacterial activity against Escherichia coli TP1 by broth microdilution method
[3] = test system: Escherichia coli; test: Antibacterial activity against Escherichia coli TP1 harboring pBR322 carrying TEM-1 assessed as inhibition of bacterial growth at 2 ug/ml after 18 hrs; format: functional; settings: TP1, 18 h
[4] = test system: Escherichia coli; test: Antibacterial activity against Escherichia coli TP1 harboring pBR322 carrying TEM-10 assessed as inhibition of bacterial growth at 256 ug/ml after 18 hrs; format: functional; settings: TP1, 18 h
[5] = test system: Escherichia coli; test: Antibacterial activity against Escherichia coli TP1 harboring pBR322 carrying TEM-12 by broth microdilution method; format: functional
[6] = test system: Escherichia coli; test: Antibacterial activity against Escherichia coli TP1 harboring pBR322 carrying TEM-10 by broth microdilution method; format: functional
[7] = test system: Escherichia coli; test: Antibacterial activity against Escherichia coli TP1 harboring pBR322 carrying TEM-10 assessed as bacterial density up to 64 ug/ml after 18 hrs; format: functional
[8] = test system: Escherichia coli; test: Antibacterial activity against Escherichia coli TP1 harboring pBR322 carrying TEM-12 assessed as inhibition of bacterial growth at 64 ug/ml after 18 hrs; format: functional; settings: TP1, 18 h
[9] = test system: Escherichia coli; test: Antibacterial activity against Escherichia coli TP1 harboring pBR322 carrying TEM-1 by broth microdilution method; format: functional
[10] = test system: Escherichia coli; test: Antibacterial activity against Escherichia coli TP1 harboring pBR322 carrying TEM-10 assessed as bacterial density at 2048 ug/ml after 18 hrs relative to control; format: functional
[11] = test system: Escherichia coli; test: Antibacterial activity against Escherichia coli TP1 harboring pBR322 carrying TEM-1 assessed as bacterial density at 2048 ug/ml after 18 hrs relative to control; format: functional
[12] = test system: Escherichia coli; test: Antibacterial activity against Escherichia coli TP1 harboring pBR322 carrying TEM-10 assessed as bacterial density at 1024 ug/ml after 18 hrs; format: functional
[13] = test system: Escherichia coli; test: Antibacterial activity against Escherichia coli TP1 harboring pBR322 carrying TEM-1 assessed as bacterial density at 512 ug/ml after 18 hrs; format: functional
[14] = test system: Escherichia coli; test: Antibacterial activity against Escherichia coli TP1 harboring pBR322 carrying TEM-12 assessed as bacterial density at 1024 ug/ml after 18 hrs; format: functional
[15] = test system: Escherichia coli; test: Antibacterial activity against Escherichia coli TP1 harboring pBR322 carrying TEM-12 assessed as bacterial density at 2048 ug/ml after 18 hrs relative to control; format: functional
[16] = test system: Escherichia coli; test: Antibacterial activity against Escherichia coli TP1 harboring pBR322 carrying TEM-12 assessed as bacterial density at 512 ug/ml after 18 hrs; format: functional
[17] = test system: Escherichia coli; test: Antibacterial activity against Escherichia coli TP1 harboring pBR322 carrying TEM-12 assessed as inhibition of bacterial growth at 4096 ug/ml after 18 hrs; format: functional; settings: TP1, 18 h
[18] = test system: Escherichia coli; test: Antibacterial activity against Escherichia coli TP1 harboring pBR322 carrying TEM-10 assessed as inhibition of bacterial growth at 4096 ug/ml after 18 hrs; format: functional; settings: TP1, 18 h
[19] = test system: Escherichia coli; test: Antibacterial activity against Escherichia coli TP1 harboring pBR322 carrying TEM-10 assessed as bacterial density at 512 ug/ml after 18 hrs; format: functional
[20] = test system: Escherichia coli; test: Antibacterial activity against Escherichia coli TP1 harboring pBR322 carrying TEM-1 assessed as inhibition of bacterial growth at 4096 ug/ml after 18 hrs; format: functional; settings: TP1, 18 h
[21] = test system: Escherichia coli; test: Antibacterial activity against Escherichia coli TP1 harboring pBR322 carrying TEM-1 assessed as bacterial density at 1024 ug/ml after 18 hrs; format: functional

With `CC(C)(O/N=C(\C(=O)N[C@@H]1C(=O)N2C(C(=O)[O-])=C(C[n+]3ccccc3)CS[C@H]12)c1csc(N)n1)C(=O)O` [CEFTAZIDIME] the inhibition at 256 µg/mL [1] was 88%, the MIC [2] was 1 µg/mL (≈ 1.83 µM) and the inhibition at 2 µg/mL [3] was 99%. For the same molecule, the inhibition at 256 µg/mL [4] was 17%, the MIC [5] was 512 µg/mL (≈ 937 µM) and the MIC [6] was > 1020 µg/mL. It also gave an Activity [7] of 100%, an inhibition at 64 µg/mL [8] of 64% and an MIC [9] of 8 µg/mL (≈ 14.6 µM).

With `CC1(C)S[C@@H]2[C@H](NC(=O)[C@H](N)c3ccccc3)C(=O)N2[C@H]1C(=O)O` [AMPICILLIN] the Activity [10] was 42%, the MIC [2] was 32 µg/mL (≈ 91.6 µM) and the Activity [11] was 95%. For the same molecule, the Activity [12] was 5%, the Activity [13] was 5% and the MIC [5] was 16400 µg/mL (≈ 46900 µM). It also gave an Activity [14] of 5%, an Activity [15] of 72% and an Activity [16] of 5%. For the same molecule, the inhibition at 4096 µg/mL [17] was 36%, the inhibition at 4096 µg/mL [18] was 78% and the Activity [19] was 5%. For the same molecule, the MIC [6] was 16400 µg/mL (≈ 46900 µM), the inhibition at 4096 µg/mL [20] was 25% and the MIC [9] was 16400 µg/mL (≈ 46900 µM). It also gave an Activity [21] of 5%.
